This is an account of results in patent US10975056B2 (GlaxoSmithKline Intellectual Property Development Limited, priority 2016, dated 2021).

One test concerns the target DNMT1 (Homo sapiens, UniProt P26358). In words: DNMT1 biochemical activity, breaklight assay and/or SPA assay.
Test [1] concerns erythroid progenitor cells (EPCs). In words: Fetal hemoglobin (HbF) ELISA in day 7 erythroid progenitor cells.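 Also: for fetal hemoglobin induction normalized to vehicle-treated cells.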 The class given is cell-based, human. The conditions noted are these: Homo sapiens, Erythroid progenitor cell, HbF ELISA, day 7 EPCs, 5 days; read-out: EPC ELISA (pEC50 category) (converted). In outline:
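CD34+-derived EPCs, 1,000 cells/well, rhEPO 3 U/mL; Compound A 22-pt series, […]; 5 d, 37° C, 5% CO2. Freeze-thaw lysis, anti-HbF capture + HRP anti-HbF, TMB, OD450. Normalized to DMSO wells.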

The mark [2] stands for this setting: binned activity in either the breaklight or the SPA assay, read-out: DNMT1 BioChemical (pIC50 category) (converted).
The mark [3] stands for this setting: binned activity in either the breaklight or the SPA assay.
Setting [4] is: breaklight assay and/or SPA assay, repeated experimental runs, read-out: average pIC50 against DNMT1 (converted).

Like-named read-outs stand apart in the source and are kept apart here.

Sequence of DNMT1 (P26358 whole entry, looked up): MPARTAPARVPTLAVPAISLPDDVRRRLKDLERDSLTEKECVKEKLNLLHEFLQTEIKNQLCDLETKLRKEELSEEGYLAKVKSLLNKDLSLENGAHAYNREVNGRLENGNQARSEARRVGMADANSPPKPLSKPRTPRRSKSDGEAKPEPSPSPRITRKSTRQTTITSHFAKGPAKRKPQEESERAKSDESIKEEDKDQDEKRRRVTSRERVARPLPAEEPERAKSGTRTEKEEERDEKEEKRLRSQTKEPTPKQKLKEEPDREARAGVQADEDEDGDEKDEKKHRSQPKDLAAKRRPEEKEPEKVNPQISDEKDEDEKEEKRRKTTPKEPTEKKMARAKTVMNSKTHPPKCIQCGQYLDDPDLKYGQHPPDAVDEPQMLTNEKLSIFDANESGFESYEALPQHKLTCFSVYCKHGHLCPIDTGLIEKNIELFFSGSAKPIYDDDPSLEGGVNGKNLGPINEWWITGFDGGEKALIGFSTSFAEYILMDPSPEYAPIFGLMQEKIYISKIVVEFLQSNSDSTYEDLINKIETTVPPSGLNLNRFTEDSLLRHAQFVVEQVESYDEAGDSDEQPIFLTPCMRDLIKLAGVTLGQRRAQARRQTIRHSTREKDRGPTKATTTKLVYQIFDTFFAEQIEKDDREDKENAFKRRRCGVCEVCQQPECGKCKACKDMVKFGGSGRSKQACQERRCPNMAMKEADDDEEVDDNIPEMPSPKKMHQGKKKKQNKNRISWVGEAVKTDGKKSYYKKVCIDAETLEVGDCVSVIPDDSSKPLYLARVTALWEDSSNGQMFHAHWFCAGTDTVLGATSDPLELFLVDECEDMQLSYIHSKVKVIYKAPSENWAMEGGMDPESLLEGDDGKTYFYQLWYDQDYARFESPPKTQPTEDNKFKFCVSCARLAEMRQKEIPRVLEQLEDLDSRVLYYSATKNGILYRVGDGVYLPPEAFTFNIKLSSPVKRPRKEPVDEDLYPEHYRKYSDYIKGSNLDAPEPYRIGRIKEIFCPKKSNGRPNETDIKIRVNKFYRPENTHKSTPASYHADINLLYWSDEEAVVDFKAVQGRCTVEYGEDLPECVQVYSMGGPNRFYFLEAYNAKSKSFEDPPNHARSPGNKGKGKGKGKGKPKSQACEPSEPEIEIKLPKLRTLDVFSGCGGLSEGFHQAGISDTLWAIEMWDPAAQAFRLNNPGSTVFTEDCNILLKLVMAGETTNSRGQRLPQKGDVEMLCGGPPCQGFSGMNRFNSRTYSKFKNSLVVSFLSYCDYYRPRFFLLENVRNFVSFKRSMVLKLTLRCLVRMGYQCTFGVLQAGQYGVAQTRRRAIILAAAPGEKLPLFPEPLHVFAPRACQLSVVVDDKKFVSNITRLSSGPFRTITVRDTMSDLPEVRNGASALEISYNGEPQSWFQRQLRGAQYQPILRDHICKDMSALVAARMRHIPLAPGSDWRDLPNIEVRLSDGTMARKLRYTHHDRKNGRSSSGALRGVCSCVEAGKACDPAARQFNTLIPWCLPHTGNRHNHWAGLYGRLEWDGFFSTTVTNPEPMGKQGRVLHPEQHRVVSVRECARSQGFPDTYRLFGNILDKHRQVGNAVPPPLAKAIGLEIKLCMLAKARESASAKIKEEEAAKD

As for `CCc1c(C#N)c(SC(C(N)=O)c2ccccc2)nc(N2CCN(Cc3cc[nH]c3)CC2)c1C#N` (centres unmarked) [Example 182, 2-((6-(4-((1H-Pyrrol-3-yl)methyl)piperazin-1-yl)-3,5-dicyano-4-ethylpyridin-2-yl)thio)-2-phenylacetamide], on DNMT1 (setting [2]), the IC50 is 316 to 1000 nM. Besides, the EC50 in test [1] is 316 to 1000 nM.

For the compound `CCc1c(C#N)c(SC(C(N)=O)c2ccccc2)nc(N2CCC(N(C)CC(C)(C)O)CC2)c1C#N` (centres unmarked) [Example 444, 2-((3,5-dicyano-4-ethyl-6-(4-((2-hydroxy-2-methylpropyl)(methyl)amino)piperidin-1-yl)pyridin-2-yl)thio)-2-phenylacetamide], on DNMT1 (setting [3]), the “DNMT1 BioChemical (pIC50 category)” value is reported as “D (Category D: ≥6.5)”. Besides, the EC50 in test [1] was less than 316 nM.

Consider `CCc1c(C#N)c(SC(C(N)=O)c2ccccc2)nc(N(C)CCN2CCC[C@H]2CO)c1C#N` (stereo partly drawn) [Example 475, 2-((3,5-dicyano-4-ethyl-6-((2-((S)-2-(hydroxymethyl)pyrrolidin-1-yl)ethyl)(methyl)amino)pyridin-2-yl)thio)-2-phenylacetamide], for which the “DNMT1 BioChemical (pIC50 category)” value at DNMT1 (setting [3]) is reported as “D (Category D: ≥6.5)”. Moreover, in test [1], the EC50 was less than 316 nM.

Regarding `CCc1c(C#N)c(SCc2ccc(B(O)O)cc2)nc(N2CCCN(C)CC2)c1C#N` [Example 357, 4-((3,5-Dicyano-4-ethyl-6-(4-methyl-1,4-diazepan-1-yl)pyridin-2-ylthio)methyl)phenylboronic acid], the IC50 on DNMT1 (setting [2]) is 316 to 1000 nM. For the same compound, in test [1], the EC50 was greater than 31600 nM.

Turning to `CCc1c(C#N)c(SC(C(N)=O)c2ccccc2)nc(N2Cc3cn[nH]c3C2)c1C#N` (centres unmarked) [Example 236, 2-((3,5-Dicyano-4-ethyl-6-(pyrrolo[3,4-c]pyrazol-5(1H,4H,6H)-yl)pyridin-2-yl)thio)-2-phenylacetamide], the “DNMT1 BioChemical (pIC50 category)” value at DNMT1 (setting [3]) was “D (Category D: ≥6.5)”. In test [1], the EC50 was greater than 31600 nM.

Turning to `CCNC(=O)NCc1ccc(CSc2nc(N3CCCN(C)CC3)c(C#N)c(CC)c2C#N)cc1` [Example 99, 1-(4-(((3,5-Dicyano-4-ethyl-6-(4-methyl-1,4-diazepan-1-yl)pyridin-2-yl)thio)methyl)benzyl)-3-ethylurea], the IC50 on DNMT1 (setting [2]) and at DNMT1 (setting [4]) was 316 to 1000 nM each time. Besides, in test [1], the EC50 is 1000 to 31600 nM.

`CCc1c(C#N)c(SCc2ccc(N(C)S(C)(=O)=O)cc2)nc(N(C)CCN(CC)CC)c1C#N` [Example 579, N-(4-(((3,5-dicyano-6-((2-(diethylamino)ethyl)(methyl)amino)-4-ethylpyridin-2-yl)thio)methyl)phenyl)-N-methylmethanesulfonamide]: the “DNMT1 BioChemical (pIC50 category)” value at DNMT1 (setting [3]) is “D (Category D: ≥6.5)”. Moreover, the EC50 in test [1] is less than 316 nM.

With `CCc1c(C#N)c(SC(C(N)=O)c2ccccc2)nc(N(C)CC(=O)N(C)CC(C)(C)CO)c1C#N` (centres unmarked) [Example 615, 2-((6-((2-amino-2-oxo-1-phenylethyl)thio)-3,5-dicyano-4-ethylpyridin-2-yl)(methyl)amino)-N-(3-hydroxy-2,2-dimethylpropyl)-N-methylacetamide], the “DNMT1 BioChemical (pIC50 category)” value on DNMT1 (setting [3]) is reported as “D (Category D: ≥6.5)”. For the same compound, in test [1], the EC50 is less than 316 nM.

As to `CCc1c(C#N)c(SC(C(N)=O)c2ccccc2)nc(N2CCC(NC3CC3)C(F)C2)c1C#N` (centres unmarked) [Example 527, 2-((3,5-dicyano-6-(4-(cyclopropylamino)-3-fluoropiperidin-1-yl)-4-ethylpyridin-2-yl)thio)-2-phenylacetamide], the “DNMT1 BioChemical (pIC50 category)” value at DNMT1 (setting [3]) is given as “D (Category D: ≥6.5)”. Further, in test [1], the EC50 is less than 316 nM.

`CCc1c(C#N)c(SC(C(N)=O)c2ccccc2)nc(N(C)CCN2CC[C@@H](N(C)C)C2)c1C#N` (stereo partly drawn) [Example 516, 2-((3,5-dicyano-6-((2-((R)-3-(dimethylamino)pyrrolidin-1-yl)ethyl)(methyl)amino)-4-ethylpyridin-2-yl)thio)-2-phenylacetamide]: the “DNMT1 BioChemical (pIC50 category)” value at DNMT1 (setting [3]) is recorded as “D (Category D: ≥6.5)”. The EC50 in test [1] is less than 316 nM.

As to `CCc1c(C#N)c(SCc2ccc(CNC(=O)[C@H](C)N)cc2)nc(N2CCCN(C)CC2)c1C#N` [Example 97, (S)-2-Amino-N-(4-(((3,5-dicyano-4-ethyl-6-(4-methyl-1,4-diazepan-1-yl)pyridin-2-yl)thio)methyl)benzyl)propanamide], the “DNMT1 BioChemical (pIC50 category)” value at DNMT1 (setting [3]) is recorded as “D (Category D: ≥6.5)”. In addition, the EC50 in test [1] was greater than 31600 nM.

Take `CCc1c(C#N)c(SC(C(N)=O)c2ccccc2)nc(N2CCC(OCCOP(=O)(O)O)CC2)c1C#N` (centres unmarked) [Example 154, 2-((1-(6-((2-Amino-2-oxo-1-phenylethyl)thio)-3,5-dicyano-4-ethylpyridin-2-yl)piperidin-4-epoxy)ethyldihydrogen phosphate]: at DNMT1 (setting [2]), the IC50 is 1000 to 31600 nM. The EC50 in test [1] is 1000 to 31600 nM.

Regarding `CCc1c(C#N)c(SC(C(N)=O)c2ccccc2)nc(N2CCO[C@H](CNC(=O)CN)C2)c1C#N` (stereo partly drawn) [Example 592, 2-amino-N-(((2R)-4-(6-((2-amino-2-oxo-1-phenylethyl)thio)-3,5-dicyano-4-ethylpyridin-2-yl)morpholin-2-yl)methyl)acetamide], the “DNMT1 BioChemical (pIC50 category)” value at DNMT1 (setting [3]) was “D (Category D: ≥6.5)”. Moreover, the “average pIC50 against DNMT1” value at DNMT1 (breaklight assay and/or SPA assay, repeated experimental runs) is on record as greater than 6.5. For the same compound, the IC50 on DNMT1 (setting [4]) was 158 nM. The EC50 in test [1] was less than 316 nM.

As to `CCc1c(C#N)c(SC(C(N)=O)c2ccccc2)nc(N2CCC(N(C)C3CCC3)CC2)c1C#N` (centres unmarked) [Example 454, 2-((3,5-dicyano-6-(4-(cyclobutyl(methyl)amino)piperidin-1-yl)-4-ethylpyridin-2-yl)thio)-2-phenylacetamide], on DNMT1 (setting [3]), the “DNMT1 BioChemical (pIC50 category)” value is reported as “D (Category D: ≥6.5)”. In addition, the EC50 in test [1] was less than 316 nM.

Regarding `N#Cc1c(SC(C(N)=O)c2ccccc2)nc(N2CC(NC(=O)[C@H](N)CO)C2)c(C#N)c1C1CC1` (stereo partly drawn) [Example 614, (2R)-2-amino-N-(1-(6-((2-amino-2-oxo-1-phenylethyl)thio)-3,5-dicyano-4-cyclopropylpyridin-2-yl)azetidin-3-yl)-3-hydroxypropanamide], the “DNMT1 BioChemical (pIC50 category)” value at DNMT1 (setting [3]) is recorded as “D (Category D: ≥6.5)”. For the same compound, the EC50 in test [1] is 1000 to 31600 nM.

As for `N#Cc1c(SC(C(N)=O)c2ccccc2)nc(N2CC(O)C2)c(C#N)c1C1CC1` (centres unmarked) [Example 387, 2-((3,5-Dicyano-4-cyclopropyl-6-(13-hydroxyazetidin-1-yl)pyridin-2-yl)thio)-2-phenylacetamide], on DNMT1 (setting [3]), the “DNMT1 BioChemical (pIC50 category)” value is reported as “D (Category D: ≥6.5)”. For the same compound, the EC50 in test [1] was 1000 to 31600 nM.

For `CCc1c(C#N)c(SCc2ccc(CNC(C)=O)cc2)nc(N2CCC(NC(C)=O)CC2)c1C#N` [Example 290, N-(1-(6-((4-(Acetamidomethyl)benzyl)thio)-3,5-dicyano-4-ethylpyridin-2-yl)piperidin-4-yl)acetamide], the IC50 on DNMT1 (setting [2]) is 316 to 1000 nM. For the same compound, the EC50 in test [1] was 1000 to 31600 nM.

On to `CCc1c(C#N)c(SC(C(N)=O)c2ccccc2)nc(N2CCC(N3CCC[C@H]3C)CC2)c1C#N` (stereo partly drawn) [Example 451, 2-((3,5-dicyano-4-ethyl-6-(4-((R)-2-methylpyrrolidin-1-yl)piperidin-1-yl)pyridin-2-yl)thio)-2-phenylacetamide], for which the “DNMT1 BioChemical (pIC50 category)” value at DNMT1 (setting [3]) was “D (Category D: ≥6.5)”. The EC50 in test [1] is less than 316 nM.

`CCc1c(C#N)c(SCc2ccc(CNC(=O)CO)cc2)nc(N2CCC(O)C2)c1C#N` (centres unmarked) [Example 367]: on DNMT1 (setting [2]), the IC50 is 316 to 1000 nM. Besides, the EC50 in test [1] was 1000 to 31600 nM.
